Assay results taken from article PMC7916522, “In Vitro and In Vivo Anti-Candida Activity and Structural Analysis of Killer Peptide (KP)-Derivatives” (Journal of Fungi, 2021).
Peptide text beside a SMILES is read from it.

Assays:
Candida albicans SC5314 = assay: CFU assay, neutralization of candidacidal activity by laminarin; assay type: cell-based; details: peptide at its minimal candidacidal concentration
Procedure: The candidacidal activity of KP-derivatives, in comparison to KP, was evaluated by a previously described colony forming unit (CFU) assay against the reference C. albicans strain SC5314 [25]. Briefly, approximately 500 yeast cells were incubated at 37 °C for 6 h in 100 µL of distilled water in the presence or absence (control growth) of the synthetic peptides at serial dilutions. After spreading on Sabouraud Dextrose agar (SDA) plates and incubation for 48–72 h at 30 °C, CFUs were counted. Peptide fungicidal activity was determined as percentage of CFU inhibition, according to the formula 100-(CFUs peptide treated/CFUs control growth) × 100. Each assay was carried out in triplicate and at least two independent experiments were performed for each condition. Half maximal effective concentration (EC50) was calculated by nonlinear regression analysis using GraphPad Prism 5 software (San Diego, CA, USA). CFU assays were also performed in order to verify if laminarin (100 or 200 µg/mL), a soluble β-1,3-glucan, could neutralize the candidacidal activity of KP-derivatives at their minimum fungicidal concentration [25].

LLC-MK2 cells = details: 24 h incubation, resazurin assay; for Cell viability (%) 10 µM: peptide 10 µM; for Cell viability (%) 25 µM: peptide 25 µM; for Cell viability (%) 50 µM: peptide 50 µM
Procedure: (§1) A stock solution of peptides (20 mg/mL) was prepared in dimethyl sulfoxide (DMSO), then proper dilutions were made for evaluation of biological activities. DMSO at proper concentration was present in controls (without peptides). All the peptides were evaluated for their hemolytic activity against freshly collected human red blood cells, while cytotoxicity against monkey kidney epithelial cells LLC-MK2 was determined by resazurin assay, as previously described.

human red blood cells = details: peptide 25 µM
Procedure: as §1

SMILES | C. albicans Growth Inhibition (%) in the Presence of Laminarin 100 µg/mL (Candida albicans SC5314) | Cell viability (%) 10 µM (LLC-MK2 cells) | Cell viability (%) 25 µM (LLC-MK2 cells) | Cell viability (%) 50 µM (LLC-MK2 cells) | hemolysis after 120 min (human red blood cells; 120 min incubation) | C. albicans Growth Inhibition (%) in the Presence of Laminarin 200 µg/mL (Candida albicans SC5314) | hemolysis after 30 min (human red blood cells; 30 min incubation)
CSCC[C@H](NC(=O)[C@@H](NC(=O)[C@@H](NC(=O)[C@H](CCCCN)NC(=O)[C@@H](N)CCCCN)C(C)C)[C@@H](C)O)C(=O)N[C@H](C(=O)N[C@@H](CS)C(=O)N[C@@H](CO)C(=O)N[C@@H](C)C(=O)N[C@@H](CO)C(=O)O)[C@@H](C)O [Peptide K10S] (H-KKVTMTCSAS-OH) | 1.07 ± 0.39% | 93.74% | 100% | 90.95% | 2.42% |  | 
CSCC[C@H](NC(=O)[C@@H](NC(=O)[C@@H](NC(=O)[C@@H](N)CCCCN)C(C)C)[C@@H](C)O)C(=O)N[C@H](C(=O)N[C@@H](CS)C(=O)N[C@@H](CO)C(=O)N[C@@H](C)C(=O)N[C@@H](CO)C(=O)O)[C@@H](C)O [Peptide K9S] (H-KVTMTCSAS-OH) | 31.09 ± 1.71% | 100% | 98.55% | 95.86% |  | 0.68 ± 0.97% | 
CSCC[C@H](NC(=O)[C@@H](NC(=O)[C@@H](NC(=O)[C@H](CCCCN)NC(=O)[C@@H](N)CO)C(C)C)[C@@H](C)O)C(=O)N[C@H](C(=O)N[C@@H](CS)C(=O)N[C@@H](CO)C(=O)N[C@@H](C)C(=O)N[C@@H](CO)C(=O)O)[C@@H](C)O [Peptide S10S] (H-SKVTMTCSAS-OH) | 99.12 ± 0.50% | 99.77% | 99.75% | 91.09% |  | 60.73 ± 13.13% | 
CSCC[C@H](NC(=O)[C@@H](NC(=O)[C@@H](NC(=O)[C@H](CCCCN)NC(=O)[C@H](C)N)C(C)C)[C@@H](C)O)C(=O)N[C@H](C(=O)N[C@@H](CS)C(=O)N[C@@H](CO)C(=O)N[C@@H](C)C(=O)N[C@@H](CO)C(=O)O)[C@@H](C)O [A10S (KP)] (H-AKVTMTCSAS-OH) | 96.39 ± 1.68% | 93.59% | 88.20% | 89.71% |  | 1.80 ± 0.49% | 1.13%
CSCC[C@H](NC(=O)[C@@H](NC(=O)[C@@H](NC(=O)[C@H](CCCCN)NC(=O)[C@@H](N)Cc1ccc(O)cc1)C(C)C)[C@@H](C)O)C(=O)N[C@H](C(=O)N[C@@H](CS)C(=O)N[C@@H](CO)C(=O)N[C@@H](C)C(=O)N[C@@H](CO)C(=O)O)[C@@H](C)O [Peptide Y10S] (H-YKVTMTCSAS-OH) | 5.57 ± 4.84% | 96.89% | 95.35% | 97.18% |  |  | 
CSCC[C@H](NC(=O)[C@@H](NC(=O)[C@@H](NC(=O)[C@H](CCCCN)NC(=O)[C@@H](N)CC(C)C)C(C)C)[C@@H](C)O)C(=O)N[C@H](C(=O)N[C@@H](CS)C(=O)N[C@@H](CO)C(=O)N[C@@H](C)C(=O)N[C@@H](CO)C(=O)O)[C@@H](C)O [Peptide L10S] (H-LKVTMTCSAS-OH) | 0% | 95.70% | 93.44% | 98.07% |  |  | 
CSCC[C@H](NC(=O)[C@@H](NC(=O)[C@@H](NC(=O)[C@H](CCCCN)NC(=O)[C@@H](N)Cc1c[nH]cn1)C(C)C)[C@@H](C)O)C(=O)N[C@H](C(=O)N[C@@H](CS)C(=O)N[C@@H](CO)C(=O)N[C@@H](C)C(=O)N[C@@H](CO)C(=O)O)[C@@H](C)O [Peptide H10S] (H-HKVTMTCSAS-OH) | 6.20 ± 3.71% | 96.77% | 94.90% | 90.99% |  |  | 
CSCC[C@H](NC(=O)[C@@H](NC(=O)[C@@H](NC(=O)[C@H](CCCCN)NC(=O)[C@@H]1CCCN1)C(C)C)[C@@H](C)O)C(=O)N[C@H](C(=O)N[C@@H](CS)C(=O)N[C@@H](CO)C(=O)N[C@@H](C)C(=O)N[C@@H](CO)C(=O)O)[C@@H](C)O [Peptide P10S] (H-PKVTMTCSAS-OH) | 97.71 ± 0.46% | 93.25% | 90.20% | 89.77% |  | 3.10 ± 4.38% | 
